From patent US20260000642A1 (Tay Therapeutics Limited, priority 2022, published 2026)
pIC50: −log10 of the molar value.

Legend:
BRD4 BD2 = molecular target: T1, BRD4 BD2 (Homo sapiens, UniProt O60885); assay: NanoBRET bromodomain assay, NanoLuc-BRD4-BD2 fusion vector in HEK293 cells; assay type: cell-based; conditions: for BRD4 BD2% Activity Remaining @ 10 uM: first and second (2) batches; for Fold selectivity: IC50 for BRD4 BD1 divided by IC50 for BRD4 BD2, qualitative if an IC50 is at the upper limit; for pIC50: NanoBRET, HEK293 cells, top concentration 10 μM
T1 construct: HEK293 cells were transfected using NanoLuc-BRD4-BD1 or NanoLuc-BRD4-BD2 fusion vectors; host or cells: HEK293
Description: (§1) Bromodomain Assay Procedure

[1] = Plasma stability assay, rat plasma; assay type: in vitro ADME; conditions: 37° C., Method 2 (10 μM)
Description: Exemplary compounds of the disclosure are stable upon incubation in mouse plasma. Stability is expressed as a % remaining after 120 minutes. The experimental methods and results (Table 2) are provided hereinafter.
Plasma Stability Assay, Method 1
From stock solution of compound in 10 mM DMSO, a working solution of 1 mM is prepared by diluting the compound in DMSO. To 398 μL of plasma pre-warmed at 37° C. for 15 minutes), 2 μL of working solution of compound is added, resulting in a final concentration of 5 μM (0.5% DMSO) for the compound. The sample is then incubated at 37° C. Aliquot is withdrawn at specified time-points (0, 15, 30, 60 and 120 mins). The reaction is stopped by addition of 450 μL cold acetonitrile containing internal standard (IS). […] Aliquots of the supernatant is analysed using LC-MS/MS. The percent remaining of the compound at each time point is calculated with respect to the control sample (0 min time-point).
Plasma Stability Assay, Method 2
A working solution of compound (500 μM) is prepared in DMSO (100%). To 735 μL of plasma, 15 μL of working solution of compound is added—resulting in a final concentration of 10 μM (2% DMSO) for the compound. The sample is then incubated at 37° C. Aliquot is withdrawn at time-points—0, 15, 30, 60, 90 and 120 mins. The reaction is stopped by using chilled acetonitrile containing internal standard (IS). The samples are centrifuged and the supernatants analyzed using LC-MS/MS. The percent remaining of the compound at each time point is calculated with respect to the control sample (0 min time-point).

[2] = Sprague-Dawley rat pharmacokinetics (IV and PO); assay type: in vivo; conditions: male Sprague-Dawley rats, cassette mode, Method 1; for IV T1/2: IV 1 mg/kg; for PO F (%) / bioavailability: PO 5 mg/kg (IV 1 mg/kg); for bioavailability: rat, plasma, read-out: PO F (%)
Description: BET protein inhibitors with a long half-life and good oral bioavailability in in vivo DMPK parameters are promising oral drug candidates. Some of the exemplary compounds of the current disclosure have a long half-life and good oral bioavailability in in vivo DMPK parameters in the Sprague-Dawley rat following intravenous (IV) and oral (PO) dosing. The experimental methods and results (Table 5) are provided hereinafter.
Sprague-Dawley Rat Pharmacokinetics, Method 1
Compounds were formulated in 5% DMSO, 40% PEG-400, 55% Milli-Q water at a concentration of 0.2 mg/mL for IV and at 0.5 mg/mL for PO. Two male Sprague-Dawley rats per arm were dosed with up to 5 compounds in cassette mode, which each compound being dosed at 1 mg/kg IV and 5 mg/kg PO. Blood was sampled at various timepoints and plasma isolated. 50 μL of plasma with 5 μL of blank Sprague-Dawley rat plasma were added to 200 μL of acetonitrile containing IS mixture. The samples were vortexed for 30 s. After centrifugation at 4 degrees Celsius, 3900 rpm for 15 min, the supernatant was diluted 3 times with water. 20 μL of diluted supernatant was injected into the LC/MS/MS system for quantitative analysis and concentration of analyte determined by comparison with matrix matched standard curve. WinNonlin (Phoenix™, version 8.3) or other similar software may be used for pharmacokinetic calculations.

BRD4 BD1 = molecular target: T2, BRD4 BD1 (Homo sapiens, UniProt O60885); assay: NanoBRET bromodomain assay, NanoLuc-BRD4-BD1 fusion vector in HEK293 cells; assay type: cell-based; conditions: top concentration 10 μM
T2 construct: HEK293 cells were transfected using NanoLuc-BRD4-BD1 or NanoLuc-BRD4-BD2 fusion vectors; host or cells: HEK293
Description: as §1

CCNC(=O)c1cc(OC(C)c2ccccn2)c(C(=O)NC)[nH]1 (racemic) [Example 96, N^5-ethyl-N^2-methyl-3-(1-(pyridin-2-yl)ethoxy)-1H-pyrrole-2,5-dicarboxamide]
BRD4 BD2% Activity Remaining @ 10 uM (BRD4 BD2; listed as 96 (2)): 64%
Fold selectivity (BRD4 BD2; listed as 96(2)*): — (Fold ≥0 and ≤2)

CNC(=O)c1[nH]c(C(=O)N[C@@H]2CC[C@@H](O)C2)cc1O[C@@H](C)c1ccccc1 (racemic) [Example 116, N^5-(trans-3-hydroxycyclopentyl)-N^2-methyl-3-((S)-1-phenylethoxy)-1H-pyrrole-2,5-dicarboxamide]
pIC50 (BRD4 BD2): 6.70 to 7.30

CNC(=O)c1[nH]c(C(=O)NC2CCC2)cc1OC(C)c1ccc(Cl)cc1 (single isomer, unassigned) [Example 27, 3-(1-(4-chlorophenyl)ethoxy)-N^5-cyclobutyl-N^2-methyl-1H-pyrrole-2,5-dicarboxamide]
Plasma Stability (% remaining at 120 minutes) Rat [1]: 47%
IV T1/2 [2]: 24 min
PO F (%) [2]: 47%

CNC(=O)c1[nH]c(C(=O)NC2CCC2)cc1OC(C)c1ccc(Cl)cc1 (single isomer, unassigned) [Example 28, 3-(1-(4-chlorophenyl)ethoxy)-N^5-cyclobutyl-N^2-methyl-1H-pyrrole-2,5-dicarboxamide]
pIC50 (BRD4 BD1): ≤ 5.00

CNC(=O)c1[nH]c(C(=O)NC2CCC2)cc1OC(C)c1ccc(Cl)cn1 (single isomer, unassigned) [Example 33, 3-(1-(5-chloropyridin-2-yl)ethoxy)-N^5-cyclobutyl-N^2-methyl-1H-pyrrole-2,5-dicarboxamide]
Plasma Stability (% remaining at 120 minutes) Rat [1]: 85%

CNC(=O)c1[nH]c(C(=O)NC2CCC2)cc1OC(C)c1ccc(Cl)cc1F (single isomer, unassigned) [Example 35]
Plasma Stability (% remaining at 120 minutes) Rat [1]: 67%
IV T1/2 [2]: 30 min
PO F (%) [2]: 65%

CNC(=O)c1[nH]c(C(=O)NC2CCC2)cc1OC(C)c1ccccc1F (single isomer, unassigned) [Example 43, N^5-cyclobutyl-3-(1-(2-fluorophenyl)ethoxy)-N^2-methyl-1H-pyrrole-2,5-dicarboxamide]
Plasma Stability (% remaining at 120 minutes) Rat [1]: 20%
IV T1/2 [2]: 30 min
PO F (%) [2]: 58%

CNC(=O)c1[nH]c(C(=O)N[C@H]2CC[C@H](O)CC2)cc1OC(C)c1ccccc1F (single isomer, unassigned) [Example 45]
pIC50 (BRD4 BD1): ≤ 5.00
pIC50 (BRD4 BD2): 6.70 to 7.30
Plasma Stability (% remaining at 120 minutes) Rat [1]: 88%

CCNC(=O)c1cc(OC(C)c2ccc(Br)cc2)c(C(=O)NC)[nH]1 (single isomer, unassigned) [Example 49, 3-(1-(4-bromophenyl)ethoxy)-N^5-ethyl-N^2-methyl-1H-pyrrole-2,5-dicarboxamide]
Plasma Stability (% remaining at 120 minutes) Rat [1]: 90%

CCNC(=O)c1cc(OC(C)c2ccc(I)cc2)c(C(=O)NC)[nH]1 (single isomer, unassigned) [Example 51, N^5-ethyl-3-(1-(4-iodophenyl)ethoxy)-N^2-methyl-1H-pyrrole-2,5-dicarboxamide]
Plasma Stability (% remaining at 120 minutes) Rat [1]: 93%

CCNC(=O)c1cc(OC(C)c2c(F)cccc2F)c(C(=O)NC)[nH]1 (single isomer, unassigned) [Example 55, 3-(1-(2,6-difluorophenyl)ethoxy)-N^5-ethyl-N^2-methyl-1H-pyrrole-2,5-dicarboxamide]
pIC50 (BRD4 BD1): ≤ 5.00
pIC50 (BRD4 BD2): < 5.00
Plasma Stability (% remaining at 120 minutes) Rat [1]: 88%

CCNC(=O)c1cc(OC(C)c2c(C)cccc2C)c(C(=O)NC)[nH]1 (single isomer, unassigned) [Example 64, 3-(1-(2,6-dimethylphenyl)ethoxy)-N^5-ethyl-N^2-methyl-1H-pyrrole-2,5-dicarboxamide]
pIC50 (BRD4 BD1): ≤ 5.00

C#Cc1ccc(C(C)Oc2cc(C(=O)NCC)[nH]c2C(=O)NC)cc1 (single isomer, unassigned) [Example 70, N^5-ethyl-3-(1-(4-ethynylphenyl)ethoxy)-N^2-methyl-1H-pyrrole-2,5-dicarboxamide]
Plasma Stability (% remaining at 120 minutes) Rat [1]: 92%
bioavailability [2]: 44%

CNC(=O)c1[nH]c(C(=O)N[C@H]2CC[C@H](O)CC2)cc1O[C@@H](C)c1ccnnc1 (single isomer, unassigned) [Example 92, N^5-(4-hydroxycyclohexyl)-N^2-methyl-3-(1-(pyridazin-4-yl)ethoxy)-1H-pyrrole-2,5-dicarboxamide]
pIC50 (BRD4 BD1): ≤ 5.00

CNC(=O)c1[nH]c(-c2ncc(C)[nH]2)cc1O[C@H](C)c1ccccc1 [Example 24, (R)—N-methyl-5-(5-methyl-1H-imidazol-2-yl)-3-(1-phenylethoxy)-1H-pyrrole-2-carboxamide]
BRD4 BD2% Activity Remaining @ 10 uM (BRD4 BD2; listed as 24 (2)): 78%
Fold selectivity (BRD4 BD2): X (Fold >2 and ≤50)
Fold selectivity (BRD4 BD2; listed as 24 (2)*): — (Fold ≥0 and ≤2)

CCNC(=O)c1cc(OC(c2ccccc2)c2ccccc2)c(C(=O)NC)[nH]1 [Example 53, 3-(benzhydryloxy)-N^5-ethyl-N^2-methyl-1H-pyrrole-2,5-dicarboxamide]
Plasma Stability (% remaining at 120 minutes) Rat [1]: 91%

CNC(=O)c1[nH]c(C(=O)NCC(F)(F)F)cc1O[C@@H](C)c1ccccc1 [Example 54]
Plasma Stability (% remaining at 120 minutes) Rat [1]: 93%

CNC(=O)c1[nH]c(C(=O)NC2CC2)cc1O[C@@H](C)c1ccccc1F [Example 59, (S)—N^5-cyclopropyl-3-(1-(2-fluorophenyl)ethoxy)-N^2-methyl-1H-pyrrole-2,5-dicarboxamide]
Plasma Stability (% remaining at 120 minutes) Rat [1]: 50%
IV T1/2 [2]: 66 min
PO F (%) [2]: 70%

CNC(=O)c1[nH]c(C(=O)NC(C)C)cc1O[C@@H](C)c1ccc(Cl)cc1 [Example 61, (S)-3-(1-(4-chlorophenyl)ethoxy)-N^5-isopropyl-N^2-methyl-1H-pyrrole-2,5-dicarboxamide]
Plasma Stability (% remaining at 120 minutes) Rat [1]: 81%

CNC(=O)c1[nH]c(C(=O)NC2CC2)cc1O[C@@H](C)c1ccc(Cl)cc1 [Example 62, (S)-3-(1-(4-chlorophenyl)ethoxy)-N^5-cyclopropyl-N^2-methyl-1H-pyrrole-2,5-dicarboxamide]
Plasma Stability (% remaining at 120 minutes) Rat [1]: 82%
bioavailability [2]: 8%

CNC(=O)c1[nH]c(-c2ncc(C)[nH]2)cc1O[C@@H](C)c1ccccc1F [Example 68, (S)-3-(1-(2-fluorophenyl)ethoxy)-N-methyl-5-(5-methyl-1H-imidazol-2-yl)-1H-pyrrole-2-carboxamide]
Plasma Stability (% remaining at 120 minutes) Rat [1]: 75%

CNC(=O)c1[nH]c(-c2ncc(C)[nH]2)cc1O[C@@H](C)c1ccc(Cl)cc1 [Example 69, (S)-3-(1-(4-chlorophenyl)ethoxy)-N-methyl-5-(5-methyl-1H-imidazol-2-yl)-1H-pyrrole-2-carboxamide]
Plasma Stability (% remaining at 120 minutes) Rat [1]: 83%

CCNC(=O)c1[nH]c(C(=O)NC)c(O[C@@H](C)c2ccccc2F)c1Br [Example 72, (S)-3-bromo-N^2-ethyl-4-(1-(2-fluorophenyl)ethoxy)-N^5-methyl-1H-pyrrole-2,5-dicarboxamide]
Plasma Stability (% remaining at 120 minutes) Rat [1]: 9%

CCNC(=O)c1[nH]c(C(=O)NC)c(O[C@@H](C)c2ccccc2F)c1C [Example 74]
pIC50 (BRD4 BD1): ≤ 5.00
Fold selectivity (BRD4 BD2): X (Fold >2 and ≤50)
pIC50 (BRD4 BD2): 5.00 to 6.00
